Measured values as given in patent US20250340574A1, “MODULATORS OF CYSTIC FIBROSIS TRANSMEMBRANE CONDUCTANCE REGULATOR” (Vertex Pharmaceuticals Incorporated, priority 2022, published 2025).
Where two headings read alike, the source gives them in different places.

Target: T1, CFTR (F508del/MF-HBE cells) (Homo sapiens, UniProt P13569, DEL508-508)
T1 construct: human bronchial epithelial (HBE) cells derived from CF subjects heterozygous for F508del and a minimal function CFTR mutation (F508del/MF-HBE); endogenous in cells; host or cells: Primary human bronchial epithelial cells from CF subjects (F508del/MF genotype), differentiated at an air-liquid interface
Test: Ussing chamber assay of CFTR-mediated short-circuit currents, Assay C (0.026 μM to 25 μM, 6 concentrations)
Format: cell-based
Conditions: with 33 nM potentiator and 18 μM Tezacaftor, 20% human serum; for Emax: read-out: C Max activity (%)
Method: Ussing chamber experiments were performed using human bronchial epithelial (HBE) cells derived from CF subjects heterozygous for F508del and a minimal function CFTR mutation (F508del/MF-HBE) and cultured as previously described (Neuberger T, Burton B, Clark H, Van Goor F Methods Mol Biol 2011:741:39-54). After four days the apical media was removed, and the cells were grown at an air liquid interface for >14 days prior to use.
To isolate the CFTR-mediated short-circuit (ISC) current, F508del/MF-HBE grown on Costar® Snapwell™ cell culture inserts were mounted in an Ussing chamber and the transepithelial ISC was measured under voltage-clamp recording conditions (Vhold=0 mV) at 37° C. The basolateral solution contained (in mM) 145 NaCl, 0.83 K2HPO4, 3.3 KH2PO4, 1.2 MgCl2, 1.2 CaCl2, 10 Glucose, 10 HEPES (pH adjusted to 7.4 with NaOH) and the apical solution contained (in mM) 145 NaGluconate, 1.2 MgCl2, 1.2 CaCl2, 10 glucose, 10 HEPES (pH adjusted to 7.4 with NaOH) and 30 μM amiloride to block the epithelial sodium channel. Forskolin (20 μM) was added to the apical surface to activate CFTR, followed by apical addition of a CFTR inhibitor cocktail consisting of BPO, GlyH-101, and CFTR inhibitor 172 (each at 20 μM final assay concentration) to specifically isolate CFTR currents. The CFTR-mediated ISC (μA/cm^2) for each condition was determined from the peak forskolin response to the steady-state current following inhibition.
The activity of the CFTR corrector compounds on the CFTR-mediated ISC was determined in Ussing chamber studies as described above. The F508del/MF-HBE cell cultures were either incubated with the corrector compounds at a range of concentrations in combination with 33 nM (6R,12R)-17-amino-12-methyl-6,15-bis(trifluoromethyl)-13,19-dioxa-3,4,18-triazatricyclo[12.3.1.12,5]nonadeca-1(18),2,4,14,16-pentaen-6-ol and 18 μM Tezacaftor or were incubated with the corrector compounds at a single fixed concentration of 1 μM in combination with 44 nM (6R,12R)-17-amino-12-methyl-6,15-bis(trifluoromethyl)-13,19-dioxa-3,4,18-triazatricyclo[12.3.1.12,5]nonadeca-1(18),2,4,14,16-pentaen-6-ol and 18 μM Tezacaftor for 18-24 hours at 37° C. and in the presence of 20% human serum. The concentration of corrector compounds with 44 nM or 33 nM (6R,12R)-17-amino-12-methyl-6,15-bis(trifluoromethyl)-13,19-dioxa-3,4,18-triazatricyclo[12.3.1.12,5]nonadeca-1(18),2,4,14,16-pentaen-6-ol and 18 μM Tezacaftor during the 18-24 hours incubations was kept constant throughout the Ussing chamber measurement of the CFTR-mediated ISC to ensure compounds were present throughout the entire experiment. The efficacy and potency of the putative F508del correctors was compared to that of the known Vertex corrector, (14S)-8-[3-(2-{Dispiro[2.0.2.1]heptan-7-yl}ethoxy)-1H-pyrazol-1-yl]-12,12-dimethyl-2λ^6-thia-3,9,11,18,23-pentaazatetracyclo[17.3.1.111,14.05,10]tetracosa-1(22),5,7,9,19(23),20-hexaene-2,2,4-trione, in combination with 18 μM Tezacaftor and 1 μM Ivacaftor.
• Assay A: 0.1 μM to 25 μM, 6 concentrations • Assay B: 0.00001 μM to 25 μM, 12 concentrations • Assay C: 0.026 μM to 25 μM, 6 concentrations • Assay D: Activity at single concentration of 1 μM

T1 sequence (P13569 with tags, fused parts or gaps DEL508-508): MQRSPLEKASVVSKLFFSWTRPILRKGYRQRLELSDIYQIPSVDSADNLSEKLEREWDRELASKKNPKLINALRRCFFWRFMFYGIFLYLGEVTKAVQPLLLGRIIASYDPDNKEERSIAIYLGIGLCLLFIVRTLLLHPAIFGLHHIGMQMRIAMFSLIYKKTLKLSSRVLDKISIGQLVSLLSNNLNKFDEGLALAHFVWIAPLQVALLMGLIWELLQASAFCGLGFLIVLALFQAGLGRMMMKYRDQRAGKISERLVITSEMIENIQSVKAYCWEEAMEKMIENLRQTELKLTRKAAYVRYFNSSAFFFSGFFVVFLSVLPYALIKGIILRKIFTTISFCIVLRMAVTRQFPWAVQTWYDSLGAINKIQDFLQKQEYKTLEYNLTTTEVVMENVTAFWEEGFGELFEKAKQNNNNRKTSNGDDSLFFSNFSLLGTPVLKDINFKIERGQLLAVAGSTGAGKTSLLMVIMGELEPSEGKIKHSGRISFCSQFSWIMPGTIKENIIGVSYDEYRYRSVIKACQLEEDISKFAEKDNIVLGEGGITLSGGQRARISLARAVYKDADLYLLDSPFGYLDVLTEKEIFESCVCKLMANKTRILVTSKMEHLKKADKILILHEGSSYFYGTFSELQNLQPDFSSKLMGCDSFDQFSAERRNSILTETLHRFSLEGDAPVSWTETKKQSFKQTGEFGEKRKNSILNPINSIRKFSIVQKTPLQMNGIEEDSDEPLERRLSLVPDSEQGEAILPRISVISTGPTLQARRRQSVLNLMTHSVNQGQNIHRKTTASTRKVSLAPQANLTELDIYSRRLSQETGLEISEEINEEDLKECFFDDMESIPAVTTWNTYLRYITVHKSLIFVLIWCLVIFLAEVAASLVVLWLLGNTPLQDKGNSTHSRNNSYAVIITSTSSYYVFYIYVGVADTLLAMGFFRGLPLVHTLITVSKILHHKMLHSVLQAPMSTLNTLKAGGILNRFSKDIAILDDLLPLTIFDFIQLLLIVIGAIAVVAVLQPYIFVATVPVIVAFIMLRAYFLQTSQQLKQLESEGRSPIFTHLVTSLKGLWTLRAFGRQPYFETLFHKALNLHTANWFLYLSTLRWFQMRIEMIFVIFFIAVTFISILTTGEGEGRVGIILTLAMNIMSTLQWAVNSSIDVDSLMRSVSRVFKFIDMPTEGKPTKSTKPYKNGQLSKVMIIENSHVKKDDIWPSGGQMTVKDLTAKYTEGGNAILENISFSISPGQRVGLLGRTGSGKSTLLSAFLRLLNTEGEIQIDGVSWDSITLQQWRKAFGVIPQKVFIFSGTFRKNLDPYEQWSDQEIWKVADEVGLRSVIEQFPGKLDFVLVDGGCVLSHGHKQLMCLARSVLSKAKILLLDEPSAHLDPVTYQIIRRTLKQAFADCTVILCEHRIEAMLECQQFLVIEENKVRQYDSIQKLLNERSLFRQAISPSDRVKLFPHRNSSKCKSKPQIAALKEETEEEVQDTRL

SMILES	EC50 [µM]	Emax [%]	Emax (18-24 hours) [%]
Cc1cccc(C)c1-c1cc2nc(n1)NS(=O)(=O)c1cccc(c1)C(=O)N(Cc1cnc3oc(C(C)(C)CO)cc3n1)[C@H](CC1(C)CC1)CO2 [Compound I-112]	3 to 30		> 60
Cc1cccc(C)c1-c1cc2nc(n1)NS(=O)(=O)c1cccc(c1)C(=O)N(Cc1cnc3oc(C4CCC4)cc3n1)[C@H](CC1(C)CC1)CO2 [Compound I-133]	3 to 30		> 60
Cc1cccc(C)c1-c1cc2nc(n1)NS(=O)(=O)c1cccc(c1)C(=O)N(Cc1cnc3oc(C(C)(C)C)cc3n1)[C@H](COC(C)C)CO2 [Compound I-174]	3 to 30		> 60
Cc1cccc(C)c1-c1cc2nc(n1)NS(=O)(=O)c1cccc(c1)C(=O)N(Cc1nc3cc(C4CC4)oc3cc1F)[C@H](COC(C)C)CO2 [Compound I-198]	1 to 3		> 60
Cc1cccc(C)c1-c1cc2nc(n1)NS(=O)(=O)c1cccc(c1)C(=O)N(Cc1ncc3oc(C4CC4)cc3n1)[C@H](CC1(C)CC1)CO2 [Compound I-199]	3 to 30		> 60
Cc1cccc(C)c1-c1cc2nc(n1)NS(=O)(=O)c1cccc(c1)C(=O)N(Cc1nc3cc(C4CC4)oc3cc1F)[C@H](CC13CC(C1)C3)CO2 [Compound I-208]	1 to 3		> 60
Cc1cccc(C)c1-c1cc2nc(n1)NS(=O)(=O)c1cccc(c1)C(=O)N(Cc1ncc3oc(C4CC4)cc3n1)[C@H](CC13CC(C1)C3)CO2 [Compound I-209]	1 to 3		> 60
Cc1cccc(CC(C)C)c1-c1nc2nc(c1C)OC[C@@H](CC13CC(C1)C3)N(Cc1cnc3oc(C(C)(C)C)cc3n1)C(=O)c1cccc(c1)S(=O)(=O)N2 [Compound I-247]	< 1		> 60
Cc1cccc(C)c1-c1cc2nc(n1)NS(=O)(=O)c1cccc(c1)C(=O)N(Cc1ncc3oc(C(C)(C)C)cc3n1)[C@H](CC13CC(C1)C3)CO2 [Compound I-251]	1 to 3		> 60
C=C(C)c1cc2nc(CN3C(=O)c4cccc(c4)S(=O)(=O)Nc4nc(cc(-c5c(C)cccc5C)n4)OC[C@H]3CC3(C)CC3)cnc2o1 [Compound I-255, (11R)-6-(2,6-dimethylphenyl)-12-[(6-isopropenylfuro[2,3-b]pyrazin-2-yl)methyl]-11-[(1-methylcyclopropyl)methyl]-2,2-dioxo-9-oxa-2λ^6-thia-3,5,12,19-tetrazatricyclo[12.3.1.14,8]nonadeca-1(18),4(19),5,7,14,16-hexaen-13-one]	1 to 3		> 60
Cc1cccc(C)c1-c1cc2nc(n1)NS(=O)(=O)c1cccc(c1)C(=O)N(Cc1cnc3oc(C(C)CO)cc3n1)[C@H](CC1(C)CC1)CO2 (some centres unmarked) [Compound I-256]	1 to 3		> 60
Cc1cccc(C)c1-c1nc2nc(c1C)OC[C@@H](CC(C)(C)C)N(Cc1ncc3oc(C(C)(C)C)cc3n1)C(=O)c1cccc(c1)S(=O)(=O)N2 [Compound I-259]	< 1		> 60

Now from value to molecule:

EC50 [µM]	Emax [%]	Emax (18-24 hours) [%]	SMILES
1 to 3	> 60		Cc1cccc(C)c1-c1cc2nc(n1)NS(=O)(=O)c1cccc(c1)C(=O)N(Cc1cnc3oc(C4CC4)cc3n1)[C@H]([C@H](C)OC(C)(C)C)CO2 (stereo in doubt) [IV-80]
1 to 3		> 60	Cc1cccc(C)c1-c1cc2nc(n1)NS(=O)(=O)c1cccc(c1)C(=O)N(Cc1cnc3c(n1)CN(C(C)C)C3=O)[C@H](CC1(C)CC1)CO2 [III-18]
< 1	> 60		Cc1cccc(C)c1-c1cc2nc(n1)NS(=O)(=O)c1cccc(c1)C(=O)N(Cc1cnc3cc(C(C)(C)C)n(C)c3n1)[C@@H](C(C1CCC1)C1CCC1)CO2 [IV-50]
3 to 30	> 60		Cc1cccc(C)c1-c1cc2nc(n1)NS(=O)(=O)c1cccc(c1)C(=O)N(Cc1cnc3oc([C@H](C)CO)cc3n1)[C@H](CC1(C)CC1)CO2 [IV-52, (11R)-6-(2,6-Dimethylphenyl)-12-[[6-[(1R)-2-hydroxy-1-methyl-ethyl]furo[2,3-b]pyrazin-2-yl]methyl]-11-[(1-methylcyclopropyl)methyl]-2,2-dioxo-9-oxa-2λ^6-thia-3,5,12,19-tetrazatricyclo[12.3.1.14,8]nonadeca-1(18),4(19),5,7,14,16-hexaen-13-one]
1 to 3	> 60		Cc1cccc(C)c1-c1cc2nc(n1)NS(=O)(=O)c1cccc(c1)C(=O)N(Cc1cnc3oc(C(C)(C)C)cc3n1)[C@H](CC13CC(C)(C1)C3)CO2 [IV-53, (11R)-12-[(6-tert-butylfuro[2,3-b]pyrazin-2-yl)methyl]-6-(2,6-dimethylphenyl)-11-[(3-methyl-1-bicyclo[1.1.1]pentanyl)methyl]-2,2-dioxo-9-oxa-2λ^6-thia-3,5,12,19-tetrazatricyclo[12.3.1.14,8]nonadeca-1(18),4(19),5,7,14,16-hexaen-13-one]
3 to 30	> 60		Cc1cccc(C)c1-c1cc2nc(n1)NS(=O)(=O)c1cccc(c1)C(=O)N(Cc1cnc3oc(C(C)(C)C)cc3n1)[C@@H](CC1CC(F)(F)C1)CO2 [IV-57]
3 to 30	> 60		Cc1cccc(C)c1-c1cc2nc(n1)NS(=O)(=O)c1cccc(c1)C(=O)N(Cc1cnc3oc(C4CC4)cc3n1)[C@H]([C@H](C)OCc1ccccc1)CO2 [IV-62]
< 1	> 60		Cc1cccc(C)c1-c1cc2nc(n1)NS(=O)(=O)c1cccc(c1)C(=O)N(Cc1ccn3cc(C(C)C)nc3n1)[C@H](CC13CC(C1)C3)CO2 [IV-63, (11R)-11-(1-Bicyclo[1.1.1]pentanylmethyl)-6-(2,6-dimethylphenyl)-12-[(2-isopropyl-imidazo[1,2-a]pyrimidin-7-yl)methyl]-2,2-dioxo-9-oxa-2λ^6-thia-3,5,12,19-tetrazatricyclo[12.3.1.14,8]nonadeca-1(18),4(19),5,7,14,16-hexaen-13-one]
1 to 3	> 60		Cc1cccc(C)c1-c1cc2nc(n1)NS(=O)(=O)c1cccc(c1)C(=O)N(Cc1cnc3oc(C4CC5(CC5)C4)cc3n1)[C@H](CC1(C)CC1)CO2 [IV-65]
< 1	> 60		CCc1cccc(CC)c1-c1cc2nc(n1)NS(=O)(=O)c1cccc(c1)C(=O)N(Cc1cnc3cc(C(C)(C)C)n(C)c3n1)[C@H](CC(C)(C)C)CO2 [IV-66]
3 to 30	> 60		CCc1cccc(CC)c1-c1cc2nc(n1)NS(=O)(=O)c1cccc(c1)C(=O)N(Cc1cnc3oc(C(C)(C)C)cc3n1)[C@H](CC(C)(C)C)CO2 [IV-67]
1 to 3	> 60		CCc1cccc(CC)c1-c1cc2nc(n1)NS(=O)(=O)c1cccc(c1)C(=O)N(Cc1cnc3oc(C4CC4)cc3n1)[C@H](CC(C)(C)C)CO2 [IV-68]
1 to 3	> 60		Cc1cccc(CC(C)C)c1-c1nc2nc(c1C)OC[C@@H](COC(F)(F)F)N(Cc1cnc3cc(C4CC4)n(C)c3n1)C(=O)c1cccc(c1)S(=O)(=O)N2 [IV-69]
1 to 3	> 60		CCc1cccc(CC)c1-c1cc2nc(n1)NS(=O)(=O)c1cccc(c1)C(=O)N(Cc1cnc3cc(C4(C)CC4)n(C)c3n1)[C@H](CC(C)(C)C)CO2 [IV-71]
1 to 3	> 60		Cc1cccc(CC(C)C)c1-c1nc2nc(c1C)OC[C@@H](CC1(C)CC1)N(Cc1cnc3cc(C(C)(C)C)n(C)c3n1)C(=O)c1cccc(n1)S(=O)(=O)N2 [IV-72]
< 1	> 60		Cc1cccc(C)c1-c1cc2nc(n1)NS(=O)(=O)c1cccc(c1)C(=O)N(Cc1cnc3cc(C4(C(F)(F)F)CC4)n(C)c3n1)[C@H](CC13CC(C1)C3)CO2 [IV-73]
